Legend:
Format in all cases: functional
Parameters in all cases: scale not given: the % may be the effect or the level left
[1] = test system: Mycobacterium tuberculosis; assay: Antitubercular activity against streptomycin, isoniazid, rifampicin,ethambutol-resistant Mycobacterium tuberculosis clinical isolate assessed as reduction in RLU at 500 ug/mL after 72 hrs by luciferase reporter phage assay
[2] = test system: Mycobacterium tuberculosis; assay: Antitubercular activity against streptomycin, isoniazid, rifampicin,ethambutol-resistant Mycobacterium tuberculosis clinical isolate assessed as reduction in RLU at 100 ug/mL after 72 hrs by luciferase reporter phage assay
[3] = test system: Mycobacterium tuberculosis; assay: Antitubercular activity against streptomycin, isoniazid, rifampicin,ethambutol-resistant Mycobacterium tuberculosis clinical isolate assessed as reduction in RLU at 2 ug/mL after 72 hrs by luciferase reporter phage assay
[4] = test system: Mycobacterium tuberculosis; assay: Antitubercular activity against streptomycin, isoniazid, rifampicin,ethambutol-resistant Mycobacterium tuberculosis clinical isolate assessed as reduction in RLU at 0.5 ug/mL after 72 hrs by luciferase reporter phage assay

Row | SMILES | Activity [1] [%] | Activity [2] [%] | Activity [3] [%] | Activity [4] [%]
1 | N#Cc1c(-c2ccc(Cl)cc2)[nH]c(=S)[nH]c1=O | 66.65 | 61.35 | – | –
2 | N#Cc1c(-c2ccc(F)cc2)[nH]c(=O)[nH]c1=O | 47.86 | 38.38 | – | –
3 | N#Cc1c(-c2ccc(Br)cc2)[nH]c(=S)[nH]c1=O | 74.91 | 38.03 | – | –
4 | N#Cc1c(-c2cccc(Cl)c2)[nH]c(=O)[nH]c1=O | 52.77 | 50.1 | – | –
5 | COc1ccc(-c2[nH]c(=O)[nH]c(=O)c2C#N)cc1O | 33.49 | 25.47 | – | –
6 | CO[C@H]1/C=C/O[C@@]2(C)Oc3c(C)c(O)c4c(O)c(c(/C=N/N5CCN(C)CC5)c(O)c4c3C2=O)NC(=O)/C(C)=C\C=C\[C@H](C)[C@H](O)[C@@H](C)[C@@H](O)[C@@H](C)[C@H](OC(C)=O)[C@@H]1C [RIFAMPIN] | – | – | 29.19 | –
7 | NNC(=O)c1ccncc1 [ISONIAZID] | – | – | – | 89.6

— ChEMBL document CHEMBL2203181, “Microwave-assisted synthesis, molecular docking and antitubercular activity of 1,2,3,4-tetrahydropyrimidine-5-carbonitrile derivatives” (2012)
